Results: ChEMBL document CHEMBL5046267, “Discovery of N-Trisubstituted Pyrimidine Derivatives as Type I RET and RET Gatekeeper Mutant Inhibitors with a Novel Kinase Binding Pose” (J Med Chem, 2022)
Calls of active or inactive are those of the source. The rule behind the calls is not given here.

Experiments:
HEK293T [1] = test: Inhibition of autophosphorylation of NCOA4-RET V804M mutant (unknown origin) transfected HEK293T cells assessed as inhibition of autophosphorylation of RET at 100 to 2500 nM measured after 2 hrs by Western blotting analysis; assay type: cell-based; conditions: Homo sapiens, dose 100-2500 nM
HEK293T [2] = test: Inhibition of autophosphorylation of human NCOA4-RET G810R mutant transfected HEK293T cells assessed as inhibition of autophosphorylation of RET at 100 to 2500 nM measured after 2 hrs by Western blotting analysis; assay type: cell-based; conditions: dose 100-2500 nM

Compound	inhibition (HEK293T [1])	inhibition (HEK293T [2])
Cc1cc(Nc2cc(N3CCN(C)CC3)nc(Nc3ccc(CC(=O)Nc4cccc(F)c4)cc3)n2)[nH]n1	Active	inactive
CCN1CCN(c2cc(Nc3cc(C)n[nH]3)nc(Nc3ccc(CC(=O)NCc4cccc(F)c4)cc3)n2)CC1	Active	inactive
Cc1cc(Nc2cc(N3CCN(C)CC3)nc(Nc3ccc(CC(=O)Nc4ccc(F)cc4)cc3)n2)[nH]n1	Active	inactive
Cc1cc(Nc2cc(N3CCN(C)CC3)nc(Nc3ccc(CC(=O)Nc4ccc(C(C)C)cc4)cc3)n2)[nH]n1	Active	inactive
